One assay has as its target Chitin synthase (Candida albicans, UniProt P30572+P23316+P30573). Description: Inhibition of Candida albicans chitin synthase. The class given is protein assay.
The target in the next assay is T1, Chitin synthase 3 (Saccharomyces cerevisiae S288c, UniProt P29465).
T1 sequence (P29465 whole entry): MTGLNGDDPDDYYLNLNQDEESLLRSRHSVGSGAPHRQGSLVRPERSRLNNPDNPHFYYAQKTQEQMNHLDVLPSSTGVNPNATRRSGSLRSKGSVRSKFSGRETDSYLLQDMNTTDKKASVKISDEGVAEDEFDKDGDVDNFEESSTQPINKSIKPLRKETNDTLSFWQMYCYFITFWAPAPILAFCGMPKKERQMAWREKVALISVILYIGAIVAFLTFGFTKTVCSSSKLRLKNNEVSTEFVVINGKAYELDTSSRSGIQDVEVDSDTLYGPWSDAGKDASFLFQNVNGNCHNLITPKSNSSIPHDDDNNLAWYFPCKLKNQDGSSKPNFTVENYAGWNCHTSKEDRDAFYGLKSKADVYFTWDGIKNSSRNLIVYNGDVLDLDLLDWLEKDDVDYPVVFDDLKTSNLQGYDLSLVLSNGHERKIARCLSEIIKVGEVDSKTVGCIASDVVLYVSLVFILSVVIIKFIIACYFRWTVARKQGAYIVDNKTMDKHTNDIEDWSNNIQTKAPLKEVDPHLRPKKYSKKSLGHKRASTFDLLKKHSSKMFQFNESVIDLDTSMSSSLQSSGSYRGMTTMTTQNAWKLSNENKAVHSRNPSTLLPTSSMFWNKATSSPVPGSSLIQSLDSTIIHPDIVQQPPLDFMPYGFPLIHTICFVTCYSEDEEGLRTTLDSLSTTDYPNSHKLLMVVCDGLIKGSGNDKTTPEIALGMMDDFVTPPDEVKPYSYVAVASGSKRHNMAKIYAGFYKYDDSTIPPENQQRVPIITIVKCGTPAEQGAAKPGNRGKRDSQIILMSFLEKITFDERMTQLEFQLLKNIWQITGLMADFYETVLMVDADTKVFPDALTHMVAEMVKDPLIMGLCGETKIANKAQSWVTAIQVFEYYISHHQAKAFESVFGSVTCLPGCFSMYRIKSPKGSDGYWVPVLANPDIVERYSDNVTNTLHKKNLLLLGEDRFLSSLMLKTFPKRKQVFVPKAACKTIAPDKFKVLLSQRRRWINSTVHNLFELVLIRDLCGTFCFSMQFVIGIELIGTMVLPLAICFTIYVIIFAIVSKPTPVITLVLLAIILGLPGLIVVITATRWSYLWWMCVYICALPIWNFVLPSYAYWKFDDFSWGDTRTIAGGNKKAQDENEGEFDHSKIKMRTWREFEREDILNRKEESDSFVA
The experiment in a line: Inhibition of Saccharomyces cerevisiae chitin synthase.

The record followed here is ChEMBL document CHEMBL3046528, “Pharmacophore-based 3D-QSAR study of fungal chitin synthase inhibitors” (Med Chem Res, 2013).

The structures appear in SMILES notation.

For the molecule `CCCCCN(C/C=C/C#CC(C)(C)C)c1cccc2c1CCC(=O)N2`, at Chitin synthase, the pIC50 was 5.506.
Turning to `O=C(/C=C/c1ccc2ccccc2c1)c1ccccc1`, the IC50 at Chitin synthase 3 was 94.2 µM.
Regarding `CC(C)(C)C#C/C=C/CN(Cc1ccccc1)c1cccc2c1CCC(=O)N2`, on Chitin synthase, the pIC50 is 3.839.
Turning to `CC(C)N(C/C=C/C#CC(C)(C)C)c1cccc2c1CCC(=O)N2`, the pIC50 at Chitin synthase came out at 5.421.
As for `CN(CC#CC#CC(C)(C)C)c1cccc2c1CC(N)C(=O)N2` (configuration not stated), the pIC50 against Chitin synthase was 4.401.
Same read-out and setting: under `CN(C/C=C/C#CC(C)(C)C)c1cccc2c1CCC(=O)N2` stands 5.029.
Molecule `COc1ccc(/C=C/C(=O)c2ccccc2)cc1OC` had an IC50 against Chitin synthase 3 of 372 µM.
In turn, `CCCCN(C/C=C/C#CC(C)(C)C)c1cccc2c1CCC(=O)N2` yielded a pIC50 at Chitin synthase of 5.985.
As to `COc1ccc(/C=C/C(=O)c2ccccc2)c(OC)c1`, the IC50 against Chitin synthase 3 is 372 µM.
As for `CN(CC#CC#CC(C)(C)O)c1cccc2c1CCC(=O)N2`, on Chitin synthase, the pIC50 is 3.143.
With `CC(C)[C@H](N)C(=O)OC1Cc2c(cccc2N(C)CC#CC#CC(C)(C)C)NC1=O` (some centres not stated), at Chitin synthase, the pIC50 is on record as 4.422.
Regarding `COc1cccc(/C=C/C(=O)c2ccccc2)c1OC`, at Chitin synthase 3, inhibition was half-maximal at 298 µM (IC50).
Turning to `CN(Cc1ccc(C#CC(C)(C)C)cc1)c1cccc2c1CCC(=O)N2`, the pIC50 at Chitin synthase worked out at 4.681.
At Chitin synthase, `CCCN(C/C=C/C#CC(C)(C)C)c1cccc2c1CCC(=O)N2` gave a pIC50 of 5.679.
For `CN(CC#CC#CC(C)(C)C)c1cccc2c1CCC(=O)N2`, on Chitin synthase, the pIC50 came out at 6.323.
`O=C(/C=C/c1ccco1)c1ccc(Cl)cc1Cl` gave an IC50 on Chitin synthase 3 of 824 µM.
Turning to `CC(C)(C)C#C/C=C/CNc1cccc2c1CCC(=O)N2`, at Chitin synthase, the pIC50 was 3.6.
Consider `CCOP(=O)(OCC)OC1Cc2c(cccc2N(C)CC#CC#CC(C)(C)C)NC1=O` (configuration not stated), for which, on Chitin synthase, the pIC50 came to 5.769.
`CCC#CC#CCN(C)c1cccc2c1CCC(=O)N2` had a pIC50 against Chitin synthase of 4.529.
Still for that read-out and setting: under `CN(CCCC#CC(C)(C)C)c1cccc2c1CCC(=O)N2` stands 4.523.
Consider `CN(CC#CC#CC(C)(C)C)c1cccc2c1CC(O)C(=O)N2` (configuration not stated), for which, on Chitin synthase, the pIC50 is listed as 5.015.
Same read-out and setting: under `CCN(C/C=C/C#CC(C)(C)C)c1cccc2c1CCC(=O)N2` stands 5.538.

As a reminder, the pIC50 is the IC50 on a negative log10 scale, so that one unit is a factor of ten. The low end stands for a high IC50, the high end for a low IC50. As usually defined, the IC50 is the concentration that inhibits the measured activity by half. Low readings indicate higher potency, high ones lower potency.
